Measured values: US20250122222A1, “HETEROCYCLIC COMPOUNDS AND METHODS OF USE” (AMGEN INC., priority 2021, published 2025)

How the values were obtained:
[1] = test system: Phosphorylation of ERK1/2 in AsPC-1 cells; experiment: Phospho-ERK1/2 MSD assay; format: cell-based; settings: Homo sapiens, ASPC1, read-out: 2 h p-ERK (AsPC-1 cells), IC50 (μM), 2 hours compound treatment
Experimental: Sixteen hours prior to compound treatment, AsPC-1 cells were seeded in 96-well cell culture plates at a density of 25,000 cells/well and incubated at 37° C., 5% CO2. A compound dose-response titration was diluted in growth media, added to appropriate wells of a cell culture plate, and then incubated at 37° C., 5% CO2 for 2 hours.

[2] = target: His-tagged KRAS G12D protein (Homo sapiens, UniProt P01116, G12D); experiment: KRAS G12D TR-FRET assay (binding); settings: biotinylated KRPep-2d substrate, GDP in assay buffer
Sequence of His-tagged KRAS G12D protein (P01116 1-188 isoform P01116-2 G12D): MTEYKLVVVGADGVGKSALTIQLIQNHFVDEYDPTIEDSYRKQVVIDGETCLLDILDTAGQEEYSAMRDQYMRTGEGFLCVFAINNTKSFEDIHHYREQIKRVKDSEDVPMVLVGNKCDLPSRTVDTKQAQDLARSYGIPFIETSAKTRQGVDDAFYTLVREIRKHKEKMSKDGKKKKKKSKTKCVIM

Row | SMILES | IC50 [1] [µM] | IC50 [2] [nM]
1 | CCc1c(F)ccc2cc(O)cc(-c3ncc4c(N5CCCOC(C(=O)NC)C5)nc(OC[C@@]56CCCN5C[C@H](F)C6)nc4c3F)c12 (single isomer, unassigned) [Example 42] | – | 2
2 | CCc1c(F)ccc2cc(O)cc(-c3ncc4c(N5CCOCC(C(N)=O)C5)nc(OC[C@@]56CCCN5C[C@H](F)C6)nc4c3F)c12 (single isomer, unassigned) [Example 46] | – | 17
3 | CCc1c(F)ccc2cc(O)cc(-c3ncc4c(N5CCOCC(C(N)=O)C5)nc(OC[C@@]56CCCN5C[C@H](F)C6)nc4c3F)c12 (single isomer, unassigned) [Example 47] | 1.47 | 3
4 | CCc1c(F)ccc2cc(O)cc(-c3ncc4c(N5CCCOC(CO)C5)nc(OC[C@@]56CCCN5C[C@H](F)C6)nc4c3F)c12 (single isomer, unassigned) [Example 48] | 1.05 | 10
5 | CCc1c(F)ccc2cc(O)cc(-c3ncc4c(N5CCOCC(C)(O)C5)nc(OC[C@@]56CCCN5C[C@H](F)C6)nc4c3F)c12 (single isomer, unassigned) [Example 69] | 0.004 | –
6 | CCc1c(F)ccc2cc(O)cc(-c3ncc4c(N5CC6CC(C#N)C(C5)O6)nc(OC[C@@]56CCCN5C[C@H](F)C6)nc4c3F)c12 (single isomer, unassigned) [Example 72] | 0.308 | 6
7 | CCc1c(F)ccc2cc(O)cc(-c3ncc4c(N5CCOC[C@@H](O)C5)nc(OC[C@@]56CCCN5C[C@H](F)C6)nc4c3F)c12 [Example 25, (S)-4-(7-(8-Ethyl-7-fluoro-3-hydroxynaphthalen-1-yl)-8-fluoro-2-(((2R,7aS)-2-fluorotetrahydro-1H-pyrrolizin-7a(5H)-yl)methoxy)pyrido [4,3-d]pyrimidin-4-yl)-1,4-oxazepan-6-ol] | 0.292 | –
8 | CCc1c(F)ccc2cc(O)cc(-c3ncc4c(N5CCOC[C@H](O)C5)nc(OC[C@@]56CCCN5C[C@H](F)C6)nc4c3F)c12 [Example 26, (R)-4-(7-(8-Ethyl-7-fluoro-3-hydroxynaphthalen-1-yl)-8-fluoro-2-(((2R,7aS)-2-fluorotetrahydro-1H-pyrrolizin-7a(5H)-yl)methoxy)pyrido [4,3-d]pyrimidin-4-yl)-1,4-oxazepan-6-ol] | 2.27 | –
9 | CCc1c(F)ccc2cc(O)cc(-c3ncc4c(N5CCCOCC5)nc(OCC5(C)CCC(=O)N5)nc4c3F)c12 (centres unmarked) [Example 30, 5-(((7-(8-ethyl-7-fluoro-3-hydroxynaphthalen-1-yl)-8-fluoro-4-(1,4-oxazepan-4-yl)pyrido[4,3-d]pyrimidin-2-yl)oxy)methyl)-5-methylpyrrolidin-2-one] | – | 37
10 | CCc1c(F)ccc2cc(O)cc(-c3ncc4c(N5CCCOCC5)nc(OCC5(C#N)CCNC5)nc4c3F)c12 (centres unmarked) [Example 31, 3-(((7-(8-ethyl-7-fluoro-3-hydroxynaphthalen-1-yl)-8-fluoro-4-(1,4-oxazepan-4-yl)pyrido[4,3-d]pyrimidin-2-yl)oxy)methyl) pyrrolidine-3-carbonitrile] | – | 11
11 | CCc1c(F)ccc2cc(O)cc(-c3ncc4c(N5CCCOCC5)nc(OCC5(C#N)CCN(C)C5)nc4c3F)c12 (centres unmarked) [Example 33, 3-(((7-(8-ethyl-7-fluoro-3-hydroxynaphthalen-1-yl)-8-fluoro-4-(1,4-oxazepan-4-yl)pyrido[4,3-d]pyrimidin-2-yl)oxy)methyl)-1-methylpyrrolidine-3-carbonitrile] | – | 27
12 | CCc1c(F)ccc2cc(O)cc(-c3ncc4c(N5CCCOCC5)nc(OC[C@]56CCCN5C[C@H](F)C6)nc4c3F)c12 [Example 41, 5-ethyl-6-fluoro-4-(8-fluoro-2-(((2R, 7aR)-2-fluorotetra-hydro-1H-pyrrol-izin-7a(5H)-yl)-methoxy)-4-(1,4-oxazepan-4-yl)pyr-ido[4,3-d]pyrimi-din-7-yl)naphtha-len-2-ol] | 0.035 | –
13 | CCc1c(F)ccc2cc(O)cc(-c3ncc4c(N5CCOCC[C@H]5C)nc(OC[C@@]56CCCN5C[C@H](F)C6)nc4c3F)c12 [Example 54, 5-Ethyl-6-fluoro-4-(8-fluoro-2-(((2R,7aS)-2-fluorotetrahydro-1H-pyrrolizin-7a(5H)-yl)methoxy)-4-((R)-5-methyl-1,4-oxazepan-4-yl)pyrido[4,3-d]pyrimidin-7-yl)naphthalen-2-ol] | – | 7
14 | CCc1c(F)ccc2cc(O)cc(-c3ncc4c(N5CC6COCC(C5)C6O)nc(OC[C@@]56CCCN5C[C@H](F)C6)nc4c3F)c12 (stereo partly drawn) [Example 58, 7-(7-(8-Ethyl-7-fluoro-3-hydroxy-naphthalen-1-yl)-8-fluoro-2-(((2R,7aS)-2-fluorotetrahydro-1H-pyrrolizin-7a(5H)-yl)meth-oxy)pyrido[4,3-d]pyrimidin-4-yl)-3-oxa-7-azabicyclo [3.3.1]nonan-9-ol] | – | 14
15 | CCc1c(F)ccc2cc(O)cc(-c3ncc4c(N5C[C@H]6CCC[C@@H](C5)O6)nc(OC[C@@]56CCCN5C[C@H](F)C6)nc4c3F)c12 [Example 64, 4-(4-((1R,5S)-9-oxa-3-azabicyclo [3.3.1]nonan-3-yl)-8-fluoro-2-(((2R, 7aS)-2-fluorotetra-hydro-1H-pyrrolizin-7a(5H)-yl)methoxy)-pyrido[4,3-d]pyrim-idin-7-yl)-5-ethyl-6-fluoronaphthalen-2-ol] | – | 44
16 | CCc1c(F)ccc2cc(O)cc(-c3ncc4c(N5CCOC(CC#N)C5)nc(OC[C@@]56CCCN5C[C@H](F)C6)nc4c3F)c12 (stereo partly drawn) [Example 65, 2-(4-(7-(8-Ethyl-7-fluoro-3-hydroxy-naphthalen-1-yl)-8-fluoro-2-(((2R,7aS)-2-fluorotetrahydro-1H-pyrrolizin-7a(5H)-yl)methoxy)-pyrido[4,3-d]pyrim-idin-4-yl)morpholin-2-yl)acetonitrile] | – | 43
17 | CCc1c(F)ccc2cc(O)cc(-c3ncc4c(N5CCOC(C(F)F)C5)nc(OC[C@@]56CCCN5C[C@H](F)C6)nc4c3F)c12 (stereo partly drawn) [Example 75, 4-(4-(2-(Difluoromethyl)morpholino)-8-fluoro-2-(((2R,7aS)-2-fluorotetrahydro-1H-pyrrolizin-7a(5H)-yl)methoxy)pyrido[4,3-d]pyrimidin-7-yl)-5-ethyl-6-fluoronaphthalen-2-ol] | – | 52
18 | CCc1c(F)ccc2cc(O)cc(-c3ncc4c(N5CCCOCC5)nc(OCC5(CO)CC5)nc4c3F)c12 [Example 77, 5-Ethyl-6-fluoro-4-(8-fluoro-2-((1-(hydroxymethyl)cyclopropyl)methoxy)-4-(1,4-oxazepan-4-yl)pyrido[4,3-d]pyrimidin-7-yl)naphthalen-2-ol] | – | 41

Now from value to molecule:

Row | IC50 [1] [µM] | IC50 [2] [nM] | SMILES
19 | > 10 | 39 | CCc1c(F)ccc2cc(O)cc(-c3ncc4c(N5CC6COC(C5)C6O)nc(OC[C@@]56CCCN5C[C@H](F)C6)nc4c3F)c12 (relative stereo) [Example 11, 3-(7-(8-Ethyl-7-fluoro-3-hydroxynaphthalen-1-yl)-8-fluoro-2-(((2R,7aS)-2-fluorotetrahydro-1H-pyrrolizin-7a(5H)-yl)methoxy)pyrido [4,3-d]pyrimidin-4-yl)-6-oxa-3-azabicyclo[3.2.1] octan-8-ol]
20 | – | 249 | CCc1c(F)ccc2cc(O)cc(-c3ncc4c(N5CCCOC(C(=O)NC)C5)nc(OC[C@@]56CCCN5C[C@H](F)C6)nc4c3F)c12 (single isomer, unassigned) [Example 43]
21 | – | 26 | CCc1c(F)ccc2cc(O)cc(-c3ncc4c(N5CCOCC(C(=O)NC)C5)nc(OC[C@@]56CCCN5C[C@H](F)C6)nc4c3F)c12 (single isomer, unassigned) [Example 44]
22 | 0.427 | 2 | CCc1c(F)ccc2cc(O)cc(-c3ncc4c(N5CCOCC(C(=O)NC)C5)nc(OC[C@@]56CCCN5C[C@H](F)C6)nc4c3F)c12 (single isomer, unassigned) [Example 45]
23 | 0.794 | – | Oc1cc(-c2ncc3c(N4CCCOCC4)nc(OC[C@@]45CCCN4C[C@H](F)C5)nc3c2F)c2ccccc2c1 [Example 14, 4-(8-Fluoro-2-(((2R,7aS)-2-fluorotetrahydro-1H-pyrrolizin-7a(5H)-yl)methoxy)-4-(1,4-oxazepan-4-yl)pyrido[4,3-d]pyrimidin-7-yl)naphthalen-2-ol]
24 | – | 6 | CCc1c(F)ccc2cc(O)cc(-c3ncc4c(N5CCSC(CO)C5)nc(OC[C@@]56CCCN5C[C@H](F)C6)nc4c3F)c12 (stereo partly drawn) [Example 40, 5-Ethyl-6-fluoro-4-(8-fluoro-2-(((2R,7aS)-2-fluorotetrahydro-1H-pyrrolizin-7a(5H)-yl)methoxy)-4-(2-(hydroxymethyl)thiomorpholino)pyrido[4,3-d]pyrimidin-7-yl)naphthalen-2-ol]
25 | 0.07 | – | CCc1c(F)ccc2cc(O)cc(-c3ncc4c(N5CCOC[C@@H](CO)C5)nc(OC[C@@]56CCCN5C[C@H](F)C6)nc4c3F)c12 [Example 50, 5-Ethyl-6-fluoro-4-(8-fluoro-2-(((2R, 7aS)-2-fluorotetra-hydro-1H-pyrrol-izin-7a(5H)-yl)-methoxy)-4-((R)-6-(hydroxymeth-yl)-1,4-oxazepan-4-yl)pyrido[4,3-d]pyrimidin-7-yl)-naphthalen-2-ol]
26 | – | 7 | CCc1c(F)ccc2cc(O)cc(-c3ncc4c(N5CCOCC[C@@H]5C)nc(OC[C@@]56CCCN5C[C@H](F)C6)nc4c3F)c12 [Example 55, 5-Ethyl-6-fluoro-4-(8-fluoro-2-(((2R, 7aS)-2-fluorotetra-hydro-1H-pyrrol-izin-7a(5H)-yl)-methoxy)-4-((S)-5-methyl-1,4-oxazepan-4-yl)-pyrido[4,3-d]pyrimidin-7-yl)-naphthalen-2-ol]
27 | – | 15 | CCc1c(F)ccc2cc(O)cc(-c3ncc4c(N5CCOC(CO)C5)nc(OC[C@@]56CCCN5C[C@H](F)C6)nc4c3F)c12 (stereo partly drawn) [Example 60, 5-Ethyl-6-fluoro-4-(8-fluoro-2-(((2R, 7aS)-2-fluorotetra-hydro-1H-pyrrol-izin-7a(5H)-yl)-methoxy)-4-(2-(hydroxymethyl)-morpholino)pyrido [4,3-d]pyrimidin-7-yl)naphthalen-2-ol]
